{"source": "patent EP0973766B1", "about": "“QUINOXALINEDIONES” (Pfizer Limited, priority 1997, dated 1998)", "assay": "Lipophilicity by the octanol/water partition method"}
{"smiles": "COCc1nnc(-c2ccc[n+]([O-])c2)n1-c1c(Cl)c(Cl)cc2[nH]c(=O)c(=O)[nH]c12", "note": "[Example 2, (-)-6,7-Dichloro-5-[3-methoxymethyl-5-(1-oxidopyridin-3-yl)-4H-1,2,4-triazol-4-yl]-2,3(1H,4H)-quinoxalinedione hydrate]", "values": [{"measurement": "logD", "result": -1.7}]}
